Values quoted from earlier work in patent US9925167B2, “Agents for the control of parasites on animals” (Hansen-AB GmbH, priority 2011, dated 2018).

Legend:
hepatotoxic damage = settings: orally administered; Aldana et al. 2001
paresthesias = settings: humans
[1] = system: fenvalerate-induced skin sensitizations; settings: guinea pigs, Malley et al. 1985

**Q.** For `CC(=O)Oc1c(C)c(C)c2c(c1C)CC[C@@](C)(CCC[C@H](C)CCC[C@H](C)CCCC(C)C)O2` [vitamin E acetate, Alpha-tocopheryl acetate], which “Effect on hepatotoxic damage after i.p. application of cypermethrin” value (hepatotoxic damage) is on record?
**A.** Its value is “positive effects”.

**Q.** What about the “Effect on paresthesias triggered by cyano-pyrethroid active substances such as fenvalerate” value (paresthesias; Flannigan et al. 1985) of the same molecule?
**A.** Its value is “positive effects”.

**Q.** What about the “Effect of topical application in paresthesias after pyrethroid-induced damage” value (paresthesias; topical, Bradberry et al. 2005) of the same molecule?
**A.** The value was “positive effect”.

**Q.** With vitamin E as the molecule, how does the “Effect of dermal pre-treatment on fenvalerate-induced skin sensitizations” value [1] read?
**A.** Its value is “reduction”.
